Molecular target: T1, human recombinant mGluR5 (Homo sapiens, UniProt P41594)
T1 construct: expressed in transfected cells; host or cells: HEK 293
Test: positive modulation of mGluR5, calcium based FLIPR assay
Conditions: HEK 293 cell line expressing human recombinant mGluR5; EC50 of the modulation from peak Ca fluorescence signal after glutamate at approx. 5% basal stimulation
Method in brief: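 HEK 293 cells expressing human recombinant mGluR5, Calcium-4 dye-loaded in Ringer solution pH 7.4. Compound (1% DMSO final) preincubated 5 min, then glutamate at ~5% of maximal effect added; peak Ca2+ fluorescence gives EC50 by nonlinear regression, normalized to DMSO (100%) and 10 μM CDPPB (200%) controls.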

T1 sequence (P41594 21-1212): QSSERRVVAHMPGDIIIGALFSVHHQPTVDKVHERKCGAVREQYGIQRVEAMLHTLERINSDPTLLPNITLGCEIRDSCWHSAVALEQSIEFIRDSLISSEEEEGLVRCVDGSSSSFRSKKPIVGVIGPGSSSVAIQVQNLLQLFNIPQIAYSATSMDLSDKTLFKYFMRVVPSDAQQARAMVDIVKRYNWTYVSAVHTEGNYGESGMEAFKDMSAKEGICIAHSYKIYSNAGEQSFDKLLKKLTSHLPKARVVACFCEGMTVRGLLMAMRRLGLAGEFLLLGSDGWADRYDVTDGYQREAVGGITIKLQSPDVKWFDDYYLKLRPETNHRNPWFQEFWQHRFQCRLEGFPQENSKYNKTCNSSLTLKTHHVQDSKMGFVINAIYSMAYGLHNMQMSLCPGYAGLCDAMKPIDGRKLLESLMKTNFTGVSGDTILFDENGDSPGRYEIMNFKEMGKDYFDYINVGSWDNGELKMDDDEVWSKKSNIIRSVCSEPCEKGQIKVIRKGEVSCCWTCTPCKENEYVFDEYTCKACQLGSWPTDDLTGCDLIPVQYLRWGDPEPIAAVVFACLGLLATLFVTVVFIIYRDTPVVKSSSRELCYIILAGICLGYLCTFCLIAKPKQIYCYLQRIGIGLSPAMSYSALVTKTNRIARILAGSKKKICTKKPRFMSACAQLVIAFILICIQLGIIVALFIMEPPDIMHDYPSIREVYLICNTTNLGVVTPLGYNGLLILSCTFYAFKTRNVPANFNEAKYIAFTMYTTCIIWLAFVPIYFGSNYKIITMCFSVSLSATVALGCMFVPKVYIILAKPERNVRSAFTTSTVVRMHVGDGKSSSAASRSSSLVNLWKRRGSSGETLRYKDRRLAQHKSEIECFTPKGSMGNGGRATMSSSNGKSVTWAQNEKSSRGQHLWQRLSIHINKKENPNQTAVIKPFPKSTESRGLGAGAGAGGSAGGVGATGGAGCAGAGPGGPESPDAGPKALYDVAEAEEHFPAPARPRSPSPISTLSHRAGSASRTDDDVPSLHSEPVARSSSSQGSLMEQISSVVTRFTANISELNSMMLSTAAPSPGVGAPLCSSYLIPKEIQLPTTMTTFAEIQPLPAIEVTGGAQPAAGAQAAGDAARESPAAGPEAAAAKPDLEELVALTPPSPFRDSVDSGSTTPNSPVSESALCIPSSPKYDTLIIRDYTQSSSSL

EC50	SMILES
232 nM	CCc1cc(-c2ccc(C)c(C)c2)nn1CC(=O)N1CC=C(c2cc(OC)ncn2)CC1 [Example 7.02.078]
46 nM	CCc1cc(-c2ccc(F)c(C)c2)nn1CC(=O)N1CCc2nc(OC)sc2CC1 [Example 7.02.164]
253 nM	COCc1cc(-c2ccc(F)c(C)c2)nn1CC(=O)N1CCc2nc(N)sc2CC1 [Example 7.01.056]
32 nM	Cc1nc2c(s1)CCN(C(=O)Cn1nc(-c3ccc(F)c(C)c3)cc1C)CC2 [Example 7.01.059]
183 nM	Cc1cc(-c2cc(C3CCCCC3)n(CC(=O)N3CCc4nc(N)sc4CC3)n2)ccc1F [Example 7.02.050]
73 nM	CCc1cc(-c2cccc(C)c2)nn1CC(=O)N1CCc2nc(C)sc2CC1 [Example 7.02.084]
194 nM	CCc1cccc(-c2cc(CC)n(CC(=O)N3CCN(c4cccc(OC)c4)C(=O)C3)n2)c1 [Example 7.02.065]
15 nM	Cc1cnc(C2=CCN(C(=O)Cn3nc(-c4ccc(F)c(C)c4)cc3-c3ccccc3)CC2)s1 [Example 7.02.134]
101 nM	Cc1nnc(C2CCN(C(=O)Cn3nc(-c4cccc(Cl)c4)cc3-c3ccccc3)CC2)o1 [Example 7.02.139]
1970 nM	COc1ccccc1N1CCN(C(=O)Cn2nc(-c3ccccc3)cc2-c2ccccc2)CC1=O [Example 7.01.011]
236 nM	Cc1nnc(N2CCN(C(=O)Cn3nc(-c4ccc(F)c(C)n4)cc3-c3ccccc3)CC2)o1 [Example 7.02.179]
398 nM	CCc1cc(-c2cc(C)c(F)c(C)c2)nn1CC(=O)N1Cc2nc(C)sc2C1 [Example 7.02.181]
242 nM	Cc1nc2c(s1)CN(C(=O)Cn1nc(-c3ccc(F)c(C)c3)cc1C)C2 [Example 7.01.062]
29 nM	CCc1cc(-c2ccc(F)c(C)c2)nn1CC(=O)N1CCc2nc(C)sc2CC1 [Example 7.02.024]
404 nM	CCc1cc(-c2cccc(Cl)c2)nn1CC(=O)N1CCN(c2nnc(C)o2)CC1 [Example 7.02.112]
881 nM	COc1ccc(-c2cc(C(C)C)n(CC(=O)N3CCc4nc(N)sc4CC3)n2)cc1C [Example 7.02.046]
1870 nM	CC1CN(C(=O)Cn2nc(-c3ccccc3)cc2-c2ccccc2)CC(C)N1C(=O)OCc1ccccc1 (stereo not drawn) [Example 7.01.025]
44 nM	Nc1nc2c(s1)CCN(C(=O)Cn1nc(-c3cccc(Cl)c3)cc1-c1ccccc1)CC2 [Example 7.02.138]
637 nM	CCc1cc(-c2cccc(Cl)c2)nn1CC(=O)N1CCC(c2nnc(C)o2)CC1 [Example 7.02.113]
30 nM	Cc1nc2c(s1)CCN(C(=O)Cn1nc(-c3ccc(F)c(C)n3)cc1-c1ccccc1)CC2 [Example 7.02.170]
477 nM	CCc1cc(-c2ccc(F)c(C)c2)nn1CC(=O)N1CCc2cn[nH]c2CC1 [Example 7.01.098]
110 nM	CCc1cc(-c2ccc(F)c(C)c2)nn1CC(=O)N1CCc2nc(C)oc2C1 [Example 7.01.077]
380 nM	CCc1cc(-c2ccc(F)c(C)c2)nn1CC(=O)N1CCc2nc(NC(C)=O)sc2CC1 [Example 7.01.069]
1800 nM	CCc1cc(-c2ccc(C)c(C)c2)nn1CC(=O)N1CCC(c2ncc(OC)cn2)CC1 [Example 7.02.077]
101 nM	Cc1cc(-c2cc(C)n(CC(=O)N3CCc4nc(N)sc4CC3)n2)ccc1F [Example 7.01.060]
220 nM	O=C(Cn1nc(-c2ccccc2)cc1-c1ccccc1)N1CCN(c2nc3ccccc3o2)CC1 [Example 7.02.009]
39 nM	Cc1nc(N2CCN(C(=O)Cn3nc(-c4ccc(F)c(C)n4)cc3-c3ccccc3)CC2)no1 [Example 7.02.174]

EC50	SMILES
45 nM	Cc1cc(-c2cc(-c3ccccc3)n(CC(=O)N3CCN(C(=O)Oc4ccccc4)CC3)n2)ccc1F [Example 7.02.242]
200 nM	Cc1cnc(-c2cc(-c3ccccc3)n(CC(=O)N3CCc4nc(N)sc4CC3)n2)cc1C [Example 7.02.127]
58 nM	CCc1cc(-c2ccc(F)c(C)c2)nn1CC(=O)N1CCN(c2cccc(OC)c2)C(=O)C1 [Example 7.02.027]
16 nM	Cc1cccc(-c2cc(-c3ccccc3)n(CC(=O)N3CCc4nc(N)sc4CC3)n2)c1 [Example 7.02.199]
110 nM	Cc1cc(-c2cc(-c3ccccc3)n(CC(=O)N3CCC(c4ncccn4)CC3)n2)ccc1F [Example 7.02.016]
4 nM	Cc1cnc(C2=CCN(C(=O)Cn3nc(-c4ccc(F)c(C)c4)cc3-c3ccccc3)CC2)o1 [Example 7.02.100]
199 nM	CCCc1cc(-c2ccc(F)c(C)c2)nn1CC(=O)N1CCC(c2cc(OC)ncn2)CC1 [Example 7.02.068]
173 nM	CCc1cc(-c2ccc(F)c(C)c2)nn1CC(=O)N1CCc2ccc(OC)cc2CC1 [Example 7.01.065]
22 nM	Cc1nc2c(s1)CN(C(=O)Cn1nc(-c3ccc(F)c(C)c3)cc1-c1ccccc1)CC2 [Example 7.01.089]
31 nM	Cc1nc2c(s1)CCN(C(=O)Cn1nc(-c3ccc(F)c(C)c3)cc1C1CCCCC1)CC2 [Example 7.02.048]
61 nM	CCc1cc(-c2cccc(Cl)c2)nn1CC(=O)N1CCc2nc(C)sc2CC1 [Example 7.02.109]
334 nM	Cc1nnc(N2CCN(C(=O)Cn3nc(-c4ccc(F)c(C)c4)cc3C)CC2)o1 [Example 7.01.063]
604 nM	Cc1coc(N2CCN(C(=O)Cn3nc(-c4ccc(F)c(C)c4)cc3C)CC2)n1 [Example 7.02.168]
2 nM	Cc1nc(N2CCN(C(=O)Cn3nc(-c4ccc(OC(F)F)cc4)cc3-c3ccccc3)CC2)no1 [Example 7.02.224]
1220 nM	COc1ccc(-c2cc(C(C)C)n(CC(=O)N3CCN(c4cccc(OC)c4)C(=O)C3)n2)cc1 [Example 7.02.041]
18 nM	Cc1cc(-c2cc(-c3ccccc3)n(CC(=O)N3CC=C(c4ncc(F)cn4)CC3)n2)ccc1F [Example 7.02.099]
190 nM	COc1cc(-c2cc(C(C)C)n(CC(=O)N3CCc4nc(C)sc4CC3)n2)ccc1F [Example 7.02.051]
15 nM	COc1cc(-c2cc(-c3ccccc3)n(CC(=O)N3CCc4nc(C)sc4CC3)n2)ccc1F [Example 7.02.148]
47 nM	COc1cccc(N2CCN(C(=O)Cn3nc(-c4ccc(F)cc4)cc3-c3ccc(F)cc3)CC2=O)c1 [Example 7.02.012]
64 nM	Cc1nc2c(s1)CN(C(=O)Cn1nc(-c3ccc(F)c(C)n3)cc1-c1ccccc1)C2 [Example 7.02.172]
1260 nM	O=C(Cn1nc(-c2ccccc2)cc1-c1ccccc1)N1CCc2nc(-c3ccccc3)ncc2C1 [Example 7.02.005]
369 nM	CCc1cc(-c2ccc(C)c(C)c2)nn1CC(=O)N1CCC(c2cc(OC)ncn2)CC1 [Example 7.02.092]
71 nM	CCCc1cc(-c2ccc(F)c(C)c2)nn1CC(=O)N1CC=C(c2ncc(OC)cn2)CC1 [Example 7.02.071]
1700 nM	COc1ccc(-c2cc(C(C)C)n(CC(=O)N3Cc4ccc(OC)cc4C3)n2)cc1 [Example 7.02.040]
253 nM	CCc1cccc(-c2cc(CC)n(CC(=O)N3Cc4nc(C)sc4C3)n2)c1 [Example 7.02.125]
735 nM	COc1ccc(-c2cc(C(C)C)n(CC(=O)N3CCc4ccc(OC)cc4CC3)n2)cc1 [Example 7.02.044]
51 nM	Cc1cnc(C2CCN(C(=O)Cn3nc(-c4ccc(F)c(C)c4)cc3-c3ccccc3)CC2)s1 [Example 7.02.140]
